The values below are quoted from earlier work in patent publication US11859165B2, “Open-top microfluidic device with structural anchors” (EMULATE, INC., priority 2015, dated 2024).

The series has as its system cell monolayers with tight junctions. The following applies: passive paracellular diffusion across cell monolayers; value reported to be indicative of well-established monolayers.

Regarding Lucifer Yellow, the “Permeability (Papp) for LY” value is 0.5 to 1.2 ×10⁻⁶ cm/s.
